Reference: EP0403249A1, “Leukotriene antagonists” (SMITHKLINE BEECHAM CORPORATION, priority 1989, dated 1990)

The compounds below were run on LTD₄ (assay: Inhibition of leukotriene (LTD₄) induced contraction of guinea pig tracheal tissues in vitro). Settings: LTD₄ concentration-response on guinea pig tracheal spiral strips, 30 minutes pretreatment with test compound, EC₃₀ shift; current average where tested more than once.
Description: The leukotriene antagonist activity of the compounds of this invention is measured by the ability of the compounds to inhibit the leukotriene induced contraction' of guinea pig tracheal tissues in vitro. The following methodology was employed: In vitro: Guinea pig (adult male albino Hartley strain) tracheal spiral strips of approximate dimensions 2 to 3 mm cross-sectional width and 3.5 cm length were bathed in modified Krebs buffer in jacketed 10 ml tissue bath and continuously aerated with 95% 0₂/5% CO₂. The tissues were connected via silk suture to force displacement transducers for recording isometric tension. The tissues were equilibrated for 1 hr., pretreated for 15 minutes with meclofenamic acid (1uM) to remove intrinsic prostaglandin responses, and then pretreated for an additional 30 minutes with either the test compound or vehicle control. A cumulative concentration-response curve for LTD₄ on triplicate tissues was generated by successive increases in the bath concentration of the LTD₄. In order to minimize intertissue variability, the contractions elicited by LTD₄ were standardized as a percentage of the maximum response obtained to a reference agonist, carbachol (10uM).
Calculations: The averages of the triplicate LTD₄ concentration-response curves both in the presence and absence of the test compound were plotted on log graph paper. The concentration of LTD₄ needed to elicit 30% of the contraction elicited by carbachol was measured and defined as the EC₃₀. The -log KB value for the test compound was determined by the following equations: [formula] 2. KB= concentration of test compound/(X-1)
The antagonist activity of representative compounds of this invention is listed in Table I. The -log KB values were calculated from the above protocol. Where compounds were tested more than once, the -log KB values given here represent the current average data.

First: O=C(O)c1cccc(CS[C@H](c2ccccc2CCCCCCCCc2ccccc2)[C@@H](O)C(=O)O)c1 [3), 2(S)-Hydroxy-3(R)-(3-carboxyphenylmethylthio)-3-[2-(8-phenyloctyl)phenyl]propionic acid]
Second: O=C(O)c1ccc(CSC(c2ccccc2CCCCCCCCc2ccccc2)C(O)C(=O)O)cc1 (stereo not shown) [7), 2-Hydroxy-3-(4-carboxyphenylmethylthio)-3-[2-(8-phenyloctyl)phenyl]propionic acid]
The “In Vitro-Log KB” value of the first is lower: 6.6 for the first, 7.1 for the second.

First: O=C(O)c1ccccc1CS[C@H](c1ccccc1CCCCCCCCc1ccccc1)[C@@H](O)C(=O)O [2), 2(S)-Hydroxy-3(R)-(2-carboxyphenylmethylthio)-3-[2-(8-phenyloctyl)phenyl]propionic acid]
Second: O=C(O)c1ccccc1SC(c1ccccc1CCCCCCCCc1ccccc1)C(O)C(=O)O (stereo not shown) [1), 2-Hydroxy-3-(2-carboxyphenylthio)-3-[2-(8-phenyloctyl)phenyl]propionic acid]
The “In Vitro-Log KB” value of the first is higher: 6.2 for the first, 5.5 for the second.

O=C(O)c1ccc(SC(c2ccccc2CCCCCCCCc2ccccc2)C(O)C(=O)O)cc1 (stereo not shown) [5), 2-Hydroxy-3-(4-carboxyphenylthio)-3-[2-(8-phenyloctyl)phenyl]propionic acid] and COC(C(=O)O)C(Sc1ccc(C(=O)O)cc1)c1ccccc1CCCCCCCCc1ccccc1 (stereo not shown) [9), 2-Methoxy-3-(4-carboxyphenylthio)-3-[2-(8-phenyloctyl)phenyl]propionic acid] are the same in “In Vitro-Log KB” value: 7.6 for the first, 7.6 for the second.

First: COc1cc(C(=O)O)ccc1CSC(CC(=O)O)c1ccccc1CCCCCCCCc1ccccc1 (stereo not shown) [12), 3-(4-Carboxy-2-methoxyphenylmethylthio)-3-[2-(8-phenyloctyl)phenyl]propionic acid]
Second: COc1cc(C(=O)O)ccc1CSC(c1ccccc1CCCCCCCCc1ccccc1)C(O)C(=O)O (stereo not shown) [6), 2-Hydroxy-3-(4-carboxy-2-methoxyphenylmethylthio)-3-[2-(8-phenyloctyl)phenyl]propionic acid]
The “In Vitro-Log KB” value of the first is lower: 7.5 for the first, 7.9 for the second.

Going from COc1cc(C(=O)O)ccc1CSC(c1ccccc1CCCCCCCCc1ccccc1)C(OC)C(=O)O (stereo not shown) [11), 2-Methoxy-3-(4-carboxy-2-methoxyphenylmethylthio)-3-[2-(8-phenyloctyl)phenyl]propionic acid] to COc1ccc(C(=O)O)cc1CSC(c1ccccc1CCCCCCCCc1ccccc1)C(O)C(=O)O (stereo not shown) [13), 2-Hydroxy-3-[(5-carboxy-2-methoxyphenylmethyl)thio]-3-[2-(8-phenyloctyl)phenyl]propionic acid], the “In Vitro-Log KB” value falls from 7.4 to 6.5.

First: O=C(O)c1ccc(CSC(c2ccccc2CCCCCCCCc2ccccc2)C(O)C(=O)O)c(F)c1 (stereo not shown) [8), 2-Hydroxy-3-(2-fluoro-4-carboxyphenylmethylthio)-3-[2-(8-phenyloctyl)phenyl]propionic acid]
Second: O=C(O)c1cccc(SC(c2ccccc2CCCCCCCCc2ccccc2)C(O)C(=O)O)c1 (stereo not shown) [4), 2-Hydroxy-3-(3-carboxyphenylthio)-3-[2-(8-phenyloctyl)phenyl]propionic acid]
The “In Vitro-Log KB” value of the first is higher: 7.8 for the first, 7.0 for the second.

O=C(O)C(O)C(Sc1ccc(O)cc1)c1ccccc1CCCCCCCCc1ccccc1 (stereo not shown) [10), 2-Hydroxy-3-(4-hydroxyphenylthio)-3-[2-(8-phenyloctyl)phenyl]propionic acid] was tested, and the “In Vitro-Log KB” value was 5.9.
